Earlier results, collected in patent US20020072508A1, “Anti-depressant, stress suppressor and mood improver” (LIPOGEN LTD., priority 2000, published 2002).

Tested on: withdrawal symptoms associated with addiction (cigarettes, alcohol, narcotics)

## phosphatidic acid
  withdrawal symptoms associated with addiction: alleviate withdrawal symptoms
